In ChEMBL document CHEMBL1150868, “Verbenachalcone, a novel dimeric dihydrochalcone with potentiating activity on nerve growth factor-action from Verbena littoralis” (J Nat Prod, 2001):
Calls of active or inactive are those of the source. The rule behind the calls is not given here.

Legend:
PC-12 [1] = experiment: Induction of neurite outgrowth in rat PC12D cells at 1 to 30 uM in absence of nerve growth factor by microscopy; format: functional, cell-based
PC-12 [2] = experiment: Enhancement of nerve growth factor-stimulated neurite outgrowth in rat PC12D cells at > 10 uM by microscopy; format: functional, cell-based

COc1cc(CCC(=O)c2ccc(O)cc2O)ccc1Oc1cc(CCC(=O)c2ccc(O)cc2O)ccc1O
Activity (PC-12 [1]): inactive | Activity (PC-12 [2]): Active
